Experimental data: patent publication US10758534B2 (Vertex Pharmaceuticals Incorporated, priority 2014, dated 2020)
Where two headings read alike, the source gives them in different places.

Target: T1, F508del (Homo sapiens, UniProt P13569, DEL508-508)
T1 construct: expressed in transfected cells
Assay: Protocol 2: FRET membrane potential optical assay (VIPR), identification of correction compounds
Type: cell-based
Summary of the method: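 Correction of the F508del trafficking defect is scored as forskolin (10 μM)/genistein (20 μM)-stimulated Cl^− efflux in NIH3T3 mouse fibroblasts after a 16 hr, 37° C. compound exposure. Depolarization was followed optically using voltage-sensing FRET dyes.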

[1] = F508del CFTR modulator activity, compounds of Table 1, read-out: EC30
[2] = Table 3, compounds of Table 1 as modulators of CFTR activity, protocol not stated

T1 sequence (P13569 with tags, fused parts or gaps DEL508-508): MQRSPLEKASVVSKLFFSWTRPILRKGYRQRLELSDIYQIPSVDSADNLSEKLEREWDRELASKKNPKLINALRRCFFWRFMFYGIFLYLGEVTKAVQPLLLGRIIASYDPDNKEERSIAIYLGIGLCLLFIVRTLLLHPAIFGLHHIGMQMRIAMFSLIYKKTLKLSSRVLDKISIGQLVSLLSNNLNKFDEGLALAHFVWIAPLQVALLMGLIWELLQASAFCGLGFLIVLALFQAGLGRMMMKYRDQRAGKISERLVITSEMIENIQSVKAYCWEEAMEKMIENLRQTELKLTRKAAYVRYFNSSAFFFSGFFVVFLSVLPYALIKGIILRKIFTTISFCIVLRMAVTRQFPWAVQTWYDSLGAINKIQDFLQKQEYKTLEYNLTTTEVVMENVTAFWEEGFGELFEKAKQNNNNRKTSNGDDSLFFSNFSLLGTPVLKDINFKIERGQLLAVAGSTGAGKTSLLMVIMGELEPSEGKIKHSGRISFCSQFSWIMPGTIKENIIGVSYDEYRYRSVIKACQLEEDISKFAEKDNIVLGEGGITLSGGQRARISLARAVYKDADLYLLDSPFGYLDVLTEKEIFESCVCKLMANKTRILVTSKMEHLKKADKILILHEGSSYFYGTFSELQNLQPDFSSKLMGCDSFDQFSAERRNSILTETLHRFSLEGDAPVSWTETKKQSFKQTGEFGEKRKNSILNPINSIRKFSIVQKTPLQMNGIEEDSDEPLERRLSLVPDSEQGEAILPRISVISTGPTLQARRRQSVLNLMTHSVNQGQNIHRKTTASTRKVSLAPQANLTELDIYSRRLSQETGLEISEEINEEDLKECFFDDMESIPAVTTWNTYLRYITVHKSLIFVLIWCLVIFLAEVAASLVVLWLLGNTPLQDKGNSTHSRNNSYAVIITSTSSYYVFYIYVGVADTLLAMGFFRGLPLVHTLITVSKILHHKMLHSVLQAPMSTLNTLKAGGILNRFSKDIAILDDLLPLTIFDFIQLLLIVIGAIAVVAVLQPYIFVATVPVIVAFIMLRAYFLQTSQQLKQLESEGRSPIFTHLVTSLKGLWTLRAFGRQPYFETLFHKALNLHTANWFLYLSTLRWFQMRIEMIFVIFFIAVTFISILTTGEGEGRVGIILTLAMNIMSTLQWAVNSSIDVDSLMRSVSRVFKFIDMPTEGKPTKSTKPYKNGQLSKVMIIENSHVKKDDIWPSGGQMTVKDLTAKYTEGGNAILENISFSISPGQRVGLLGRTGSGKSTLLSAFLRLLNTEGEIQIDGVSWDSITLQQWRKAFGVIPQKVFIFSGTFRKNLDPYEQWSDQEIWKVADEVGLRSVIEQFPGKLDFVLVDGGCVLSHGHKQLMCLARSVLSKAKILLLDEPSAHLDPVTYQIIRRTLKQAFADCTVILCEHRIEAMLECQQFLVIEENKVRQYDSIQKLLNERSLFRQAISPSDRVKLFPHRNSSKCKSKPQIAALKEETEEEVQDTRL

EC30 [1]	EC30 [2]	SMILES
< 3000 nM		C[C@@H]1CN(c2nc(-n3ccc(OCC(C)(C)C)n3)ccc2C(=O)NS(=O)(=O)c2ccc[nH]c2=O)C(C)(C)C1 [Compound 2578, 6-[3-(2,2-dimethylpropoxy)pyrazol-1-yl]-N-[(2-oxo-1H-pyridin-3-yl)sulfonyl]-2-[(4S)-2,2,4-trimethylpyrrolidin-1-yl]pyridine-3-carboxamide]
< 3000 nM		CC1CN(c2ncccc2C(=O)NS(=O)(=O)c2cccc(Oc3ccc(Cl)c(Cl)c3)n2)C(C)(C)C1 (centres unmarked) [Compound 2061, N—[[6-(3,4-dichlorophenoxy)-2-pyridyl]sulfonyl]-2-(2,2,4-trimethylpyrrolidin-1-yl)pyridine-3-carboxamide]
< 3000 nM		CC(C)Cc1ccn(-c2ccc(C(=O)NS(=O)(=O)c3cccnc3N)c(N3C[C@@H](C)CC3(C)C)n2)n1 [Compound 2036, N-[(2-amino-3-pyridyl)sulfonyl]-6-(3-isobutylpyrazol-1-yl)-2-[(4S)-2,2,4-trimethylpyrrolidin-1-yl]pyridine-3-carboxamide]
	+++ (“+++” means <3 uM)	CC1CC(C)CN(c2nc(C(C)(C)C)ccc2C(=O)NS(=O)(=O)c2cccc(N)n2)C1 (centres unmarked) [Compound 617, N-[(6-amino-2-pyridyl)sulfonyl]-6-tert-butyl-2-(3,5-dimethyl-1-piperidyl)pyridine-3-carboxamide]
	+++ (“+++” means <3 uM)	Cc1nc(-c2ccc(-c3cc(C(=O)NS(=O)(=O)c4ccccc4)n(Cc4c(C)cccc4C)n3)s2)no1 [Compound 151, N-(benzenesulfonyl)-2-[(2,6-dimethylphenyl)methyl]-5-[5-(5-methyl-1,2,4-oxadiazol-3-yl)-2-thienyl]pyrazole-3-carboxamide]
	+++ (“+++” means <3 uM)	COc1cc(F)cc(-c2ccc(C(=O)NS(=O)(=O)c3cccc(N)n3)c(Oc3c(C)cc(C)cc3C)n2)c1 [Compound 682, N-[(6-amino-2-pyridyl)sulfonyl]-6-(3-fluoro-5-methoxy-phenyl)-2-(2,4,6-trimethylphenoxy)pyridine-3-carboxamide]
< 3000 nM		COc1ccc(F)c(-c2ccc(C(=O)NS(=O)(=O)c3cccnc3N)c(N3C[C@@H](C)CC3(C)C)n2)c1 [Compound 2474, N-[(2-amino-3-pyridyl)sulfonyl]-6-(2-fluoro-5-methoxy-phenyl)-2-[(4S)-2,2,4-trimethylpyrrolidin-1-yl]pyridine-3-carboxamide]
	+++ (“+++” means <3 uM)	Cc1ccc(-c2nc(C(C)(C)C)ccc2C(=O)NS(=O)(=O)c2cccc(N)c2)cc1C [Compound 274, N-(3-aminophenyl)sulfonyl-6-tert-butyl-2-(3,4-dimethylphenyl)pyridine-3-carboxamide]
3000 to 10000 nM		CC(C)n1cc(-c2ccc(C(=O)NS(=O)(=O)c3cccnc3N)c(N3C[C@@H](C)CC3(C)C)n2)cn1 [Compound 2290, N-[(2-amino-3-pyridyl)sulfonyl]-6-(1-isopropylpyrazol-4-yl)-2-[(4S)-2,2,4-trimethylpyrrolidin-1-yl]pyridine-3-carboxamide]
	++ (“++” means between 3 uM and 10 uM)	CC(C)(C)c1ccc(C(=O)NS(=O)(=O)c2cccc(N)n2)c(-c2ccccc2)n1 [Compound 334, N-[(6-amino-2-pyridyl)sulfonyl]-6-tert-butyl-2-phenyl-pyridine-3-carboxamide]
> 10000 nM		CC1CN(c2ncc(-c3cccc4[nH]ncc34)cc2C(=O)NS(=O)(=O)c2cccc(N)n2)C(C)(C)C1 (centres unmarked) [Compound 2157, N-[(6-amino-2-pyridyl)sulfonyl]-5-(1H-indazol-4-yl)-2-(2,2,4-trimethylpyrrolidin-1-yl)pyridine-3-carboxamide]
	+++ (“+++” means <3 uM)	COc1ncccc1S(=O)(=O)NC(=O)c1cc2c(nc1Oc1c(C)cc(C)cc1C)C(C)(C)CCC2 [Compound 423, N-[(2-methoxy-3-pyridyl)sulfonyl]-8,8-dimethyl-2-(2,4,6-trimethylphenoxy)-6,7-dihydro-5H-quinoline-3-carboxamide]
< 3000 nM		Cc1ccc(-c2ccc(C(=O)NS(=O)(=O)c3ccc[nH]c3=O)c(N3C[C@@H](C)CC3(C)C)n2)cc1F [Compound 2084, 6-(3-fluoro-4-methyl-phenyl)-N-[(2-oxo-1H-pyridin-3-yl)sulfonyl]-2-[(4S)-2,2,4-trimethylpyrrolidin-1-yl]pyridine-3-carboxamide]
	+++ (“+++” means <3 uM)	CC(C)c1ccc(-c2ccc(C(=O)NS(=O)(=O)c3ccc[nH]c3=O)c(N3[C@H](C)CC[C@@H]3C)n2)cc1 [Compound 589, 2-[(2S,5R)-2,5-dimethylpyrrolidin-1-yl]-6-(4-isopropylphenyl)-N-[(2-oxo-1H-pyridin-3-yl)sulfonyl]pyridine-3-carboxamide]
	+++ (“+++” means <3 uM)	CCOc1cccc(-c2ccc(C(=O)NS(=O)(=O)c3cccc(N)n3)c(Oc3c(C)cc(C)cc3C)n2)c1 [Compound 61, N-[(6-amino-2-pyridyl)sulfonyl]-6-(3-ethoxyphenyl)-2-(2,4,6-trimethylphenoxy)pyridine-3-carboxamide]
	+++ (“+++” means <3 uM)	Cc1cc(C)c(Oc2cc(C(C)(C)C)ccc2C(=O)NS(=O)(=O)c2cccc(N)n2)c(C)c1 [Compound 102, N-[(6-amino-2-pyridyl)sulfonyl]-4-tert-butyl-2-(2,4,6-trimethylphenoxy)benzamide]
< 3000 nM		C[C@@H]1CN(c2nc(-c3cccc(OC(F)(F)F)c3)ccc2C(=O)NS(=O)(=O)c2cccnc2N)C(C)(C)C1 [Compound 2245, N-[(2-amino-3-pyridyl)sulfonyl]-6-[13-(trifluoromethoxy)phenyl]-2-[(4S)-2,2,4-trimethylpyrrolidin-1-yl]pyridine-3-carboxamide]
< 3000 nM		CC(C)OC(=O)N1CC=C(c2cc(C(=O)NS(=O)(=O)c3cccc(N)n3)c(N3C[C@@H](C)CC3(C)C)nc2C(C)(C)C)CC1 [Compound 2027, isopropyl 4-[5-[(6-amino-2-pyridyl)sulfonylcarbamoyl]-2-tert-butyl-6-[(4S)-2,2,4-trimethylpyrrolidin-1-yl]-3-pyridyl]-3,6-dihydro-2H-pyridine-1-carboxylate]
	+++ (“+++” means <3 uM)	Cc1cc(C)c(Oc2nc(-c3ccc(F)cc3)ccc2C(=O)NS(=O)(=O)c2cccc(N)n2)c(C)c1 [Compound 93, N-[(6-amino-2-pyridyl)sulfonyl]-6-(4-fluorophenyl)-2-(2,4,6-trimethylphenoxy)pyridine-3-carboxamide]
	++ (“++” means between 3 uM and 10 uM)	CC(C)Oc1ccc(-c2ccc(C(=O)NS(=O)(=O)c3cccc(N)n3)c(N(C)CC3CC3)n2)cn1 [Compound 740, N-[(6-amino-2-pyridyl)sulfonyl]-2-[cyclopropylmethyl(methyl)amino]-6-(6-isopropoxy-3-pyridyl)pyridine-3-carboxamide]
< 3000 nM		COc1ccc(OC)c(-c2ccc(C(=O)NS(=O)(=O)c3cccnc3N)c(N3C[C@@H](C)CC3(C)C)n2)c1 [Compound 2195, N-[(2-amino-3-pyridyl)sulfonyl]-6-(2,5-dimethoxyphenyl)-2-[(4S)-2,2,4-trimethylpyrrolidin-1-yl]pyridine-3-carboxamide]
	+++ (“+++” means <3 uM)	COc1cccc(S(=O)(=O)NC(=O)c2ccc(C(C)(C)C)nc2Oc2c(C)cc(C)cc2C)n1 [Compound 34, 6-tert-butyl-N-[(6-methoxy-2-pyridyl)sulfonyl]-2-(2,4,6-trimethylphenoxy)pyridine-3-carboxamide]
3000 to 10000 nM		CC1CN(c2ncccc2C(=O)NS(=O)(=O)c2cccc(Nc3cccc4ncccc34)n2)C(C)(C)C1 (centres unmarked) [Compound 2074, N—[[6-(5-quinolylamino)-2-pyridyl]sulfonyl]-2-(2,2,4-trimethylpyrrolidin-1-yl)pyridine-3-carboxamide]
3000 to 10000 nM		Cc1ccc(-c2ccc(C(=O)NS(=O)(=O)N3CC[C@H](N)C3)c(N3C[C@@H](C)CC3(C)C)n2)cc1C [Compound 2605, N-[(3S)-3-aminopyrrolidin-1-yl]sulfonyl-6-(3,4-dimethylphenyl)-2-[(4S)-2,2,4-trimethylpyrrolidin-1-yl]pyridine-3-carboxamide]

SMILES	EC30 [1]	EC30 [2]
CC(C)COc1cc(F)cc(-c2ccc(C(=O)NS(=O)(=O)c3ccn[nH]3)c(N3CCc4ccccc43)n2)c1 [Compound 739, 6-(3-fluoro-5-isobutoxy-phenyl)-2-indolin-1-yl-N-(1H-pyrazol-5-ylsulfonyl)pyridine-3-carboxamide]		++ (“++” means between 3 uM and 10 uM)
CC(C)COc1cc(F)cc(-c2ccc(C(=O)NS(=O)(=O)c3ccn[nH]3)c(N3[C@H](C)CC[C@@H]3C)n2)c1 [Compound 415, 2-[(2S,5R)-2,5-dimethylpyrrolidin-1-yl]-6-(3-fluoro-5-isobutoxy-phenyl)-N-(1H-pyrazol-5-ylsulfonyl)pyridine-3-carboxamide]		+++ (“+++” means <3 uM)
CC(C)COc1cc(F)cc(-c2ccc(C(=O)NS(=O)(=O)c3cccc(N)n3)c(N3CCC[C@@H]3C(F)(F)F)n2)c1 [Compound 398, N-[(6-amino-2-pyridyl)sulfonyl]-6-(3-fluoro-5-isobutoxy-phenyl)-2-[(2R)-2-(trifluoromethyl)pyrrolidin-1-yl]pyridine-3-carboxamide]		+++ (“+++” means <3 uM)
CC(C)COc1cc(F)cc(-c2ccc(C(=O)NS(=O)(=O)c3cccc(N)n3)c(OCC3CCO3)n2)c1 (centres unmarked) [Compound 640, N-[(6-amino-2-pyridyl)sulfonyl]-6-(3-fluoro-5-isobutoxy-phenyl)-2-(oxetan-2-ylmethoxy)pyridine-3-carboxamide]		++ (“++” means between 3 uM and 10 uM)
CC(C)COc1cc(F)cc(-c2ccc(C(=O)NS(=O)(=O)c3cccc(O)c3)c(N3CC(C)CC3(C)C)n2)c1 (centres unmarked) [Compound 395, 6-(3-fluoro-5-isobutoxy-phenyl)-N-(3-hydroxyphenyl)sulfonyl-2-(2,2,4-trimethylpyrrolidin-1-yl)pyridine-3-carboxamide]		+++ (“+++” means <3 uM)
